According to US11306063B2, “Heterocyclic naphthoquinones derivatives for use in the treatment of cancers including Cushing disease” (Commissariat a l'Energie Atomique et aux Energies …, priority 2016, dated 2022):

Molecular target: T1, USP8^CD (Homo sapiens, UniProt P40818)
T1 construct: the purified catalytic domain of USP8 (USP8^CD, in-house purified); made in house; host or cells: E. coli BL21 Gold
Experiment: tri-Ub^K63 chains hydrolysis by USP8^CD (western blot)
Assay type: biochemical
Details: FIG. 1D, at the indicated concentrations
Protocol: The degradation of purified lysine 63-linked tree-Ubiquitin chains (triUb^K63) over a 90 minutes period of time was visualized by western blot analysis. […] Enzymatic assay was performed in a HEPES buffer (50 mM pH7.4, 150 mM NaCl, 0.5 mM EDTA, 2% glycerol, 0.2 mg/ml BSA, 5 mMDTT).

T1 sequence (P40818 777-1109 limits assumed): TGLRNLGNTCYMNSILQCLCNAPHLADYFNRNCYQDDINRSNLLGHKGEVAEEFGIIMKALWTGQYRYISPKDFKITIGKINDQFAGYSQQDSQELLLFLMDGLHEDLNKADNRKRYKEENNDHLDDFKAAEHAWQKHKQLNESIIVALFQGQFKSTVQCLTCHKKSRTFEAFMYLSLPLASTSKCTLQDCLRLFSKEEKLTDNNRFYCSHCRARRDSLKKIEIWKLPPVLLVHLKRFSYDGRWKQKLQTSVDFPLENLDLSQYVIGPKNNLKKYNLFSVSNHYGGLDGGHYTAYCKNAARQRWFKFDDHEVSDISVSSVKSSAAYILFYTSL

inhibition of tri-Ub^K63 chains hydrolysis by USP8^CD: full inhibition
Compound: CCCCS(=O)(=O)Cc1nc2c(o1)C(=O)c1ccccc1C2=O [PCR9301]
